The source of these data is US9937115B2, “Oral care compositions with improved flavor” (priority 2010, dated 2018).

Experiment [1] can be described thus: Panelists brushed with dentifrice Formula Ia-Ie and rated reduction in soapy off taste and flavor character. It is filed as in vivo. The conditions noted are these: molecule incorporated in toothpaste Formula Ia-Ie; panelists n=4. The source says:
Then, these materials were further screened in Test Formula Ia-Ie, by incorporating at the indicated level. After the toothpaste was made, a small group of panelists (n=4) brushed with the dentifrice and rated the reduction in soapy off taste and the flavor character the compound provided.

For experiment [2], the target named is T1, TRPA1 receptor (Homo sapiens, UniProt O75762).
T1 construct: expressed in transfected cells; host or cells: HEK cell line
Description: cell-based. More on the design: activation: dose or concentration left out as unconfirmed. The note with it: for % of AITC Receptor Activation (from Data in Table II): restated in Table III from Table II; for activation at 100 µM / activation: HEK293; for activation at 100 µM / activation / TRPA1 Direct addition: percentage of the control (allyl isothiocyanate) calcium count, material dissolved in DMSO at 100 micromolar, HEK cells with TRPA1; for activation at 100 µM / TRPA1 Direct addition: direct addition; for activation at 100 µM: read-out: TRPA1 Direct addition; for activation: pre-incubation, read-out: TRPA1 Pre-incubation. A digest of the protocol:
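HEK cells expressing TRPA1 were treated with test compounds dissolved in DMSO at 100 micromolar, with allyl isothiocyanate as positive control. Agonism was read on a FLIPR as calcium-dye fluorescence counts above background. A TRPA1 activator was defined as giving at least 1000 counts above background at 1 mM.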

The target of experiment [3] is T1, TRPA1 receptor. It is filed as cell-based. The conditions noted are these: percentage of the control (allyl isothiocyanate) calcium count, material dissolved in DMSO at 100 micromolar, HEK cells with TRPA1.
For experiment [4] the following is noted: concentration where the cooling effect could be clearly recognized; cited from earlier work.
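Wherever TRPA1 Pre-incubation is given: values above 100 mean more active than the control.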

T1 sequence (O75762 whole entry): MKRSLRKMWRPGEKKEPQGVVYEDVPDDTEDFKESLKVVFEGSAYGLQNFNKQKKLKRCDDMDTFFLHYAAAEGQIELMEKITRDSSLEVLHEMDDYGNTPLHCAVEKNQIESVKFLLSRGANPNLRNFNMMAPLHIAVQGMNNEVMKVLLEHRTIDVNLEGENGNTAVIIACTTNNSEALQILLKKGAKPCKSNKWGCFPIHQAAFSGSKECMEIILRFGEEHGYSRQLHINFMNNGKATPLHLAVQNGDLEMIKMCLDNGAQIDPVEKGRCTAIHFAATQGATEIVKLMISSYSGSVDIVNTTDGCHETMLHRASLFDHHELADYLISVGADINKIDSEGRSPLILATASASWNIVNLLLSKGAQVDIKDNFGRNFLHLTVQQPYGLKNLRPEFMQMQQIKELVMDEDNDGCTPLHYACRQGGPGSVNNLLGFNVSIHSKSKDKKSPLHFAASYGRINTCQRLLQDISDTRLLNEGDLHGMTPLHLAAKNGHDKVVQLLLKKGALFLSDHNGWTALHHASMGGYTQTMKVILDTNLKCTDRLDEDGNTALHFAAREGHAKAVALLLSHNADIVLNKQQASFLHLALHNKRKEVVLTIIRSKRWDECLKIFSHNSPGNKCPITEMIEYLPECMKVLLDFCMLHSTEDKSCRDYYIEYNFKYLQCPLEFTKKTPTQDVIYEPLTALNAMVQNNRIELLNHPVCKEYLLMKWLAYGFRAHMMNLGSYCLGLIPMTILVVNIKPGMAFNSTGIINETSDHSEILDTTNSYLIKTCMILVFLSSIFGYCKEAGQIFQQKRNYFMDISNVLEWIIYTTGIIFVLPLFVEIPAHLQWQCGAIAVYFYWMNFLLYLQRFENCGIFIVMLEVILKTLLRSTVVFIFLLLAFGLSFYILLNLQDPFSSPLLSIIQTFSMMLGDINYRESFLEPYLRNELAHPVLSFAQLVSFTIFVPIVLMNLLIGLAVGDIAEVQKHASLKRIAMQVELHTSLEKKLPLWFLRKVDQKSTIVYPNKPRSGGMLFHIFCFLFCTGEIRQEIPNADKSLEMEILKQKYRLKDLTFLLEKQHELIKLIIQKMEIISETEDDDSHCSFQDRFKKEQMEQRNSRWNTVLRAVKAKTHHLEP

As for `CCC(C)/C=C(\C=O)c1ccccc1` (stereo not shown) [4-Methyl-2-phenyl-2-hexenal, 4-Methyl-2-phenyl-2-hexenal], the “Qualitative Team Evaluations (n = 4)” value in experiment [1] was “Reduces the bitterness from alkyl phosphates, but it has a bitter character on its own”. The “% of AITC Receptor Activation (from Data in Table II)” value (shortened to “% of AITC Receptor Activation”) on TRPA1 receptor [2] is on record as 132%.

As to `O=C(c1ccccc1)c1ccccc1` [Benzophenone], the “Qualitative Team Evaluations (n = 4)” value in experiment [1] is on record as “No observable effect”. On TRPA1 receptor [2], the activation at 100 µM came to 138%, the activation turned out to be 0% and the “% of AITC Receptor Activation” value was determined as 138%.

For the compound `CCOc1cc(C=O)ccc1OC(=O)C(C)C` [Ethyl vanillin isobutyrate], the “Qualitative Team Evaluations (n = 4)” value in experiment [1] was “Great reduction in bitter taste with no aftertaste. Slight vanilla character. Similar to vanillin isobutyrate”.

With `CC(=O)OC1C2(C)CCC(C2)C1(C)C` (stereo not shown) [Fenchyl Acetate], the “TRPA1 Pre-incubation” value on TRPA1 receptor [3] worked out at 59.08%. Also, on TRPA1 receptor [2], the “TRPA1 Direct addition” value is listed as −0.1%.

For `CCCC1CCC(=O)O1` (stereo not shown) [Gamma Heptalactone], the “TRPA1 Pre-incubation” value at TRPA1 receptor [3] was determined as 51.03%. Further, the “TRPA1 Direct addition” value on TRPA1 receptor [2] was 1.18%.

In the case of `CC(=O)/C(C)=C/C1C(C)=CCCC1(C)C` (stereo not shown) [Gamma Methyl Ionone], the “TRPA1 Pre-incubation” value at TRPA1 receptor [3] is on record as 23.55%. For the same compound, the “TRPA1 Direct addition” value on TRPA1 receptor [2] was determined as 4.96%.

Turning to `CCCCCC(C)=O` [Heptanone], the “TRPA1 Pre-incubation” value at TRPA1 receptor [3] is reported as 69.5%. Besides, the “TRPA1 Direct addition” value on TRPA1 receptor [2] is recorded as −0.04%.

With `CC/C=C\CCO` [Hexen-1-ol], the “TRPA1 Pre-incubation” value at TRPA1 receptor [3] was 80.84%. At TRPA1 receptor [2], the “TRPA1 Direct addition” value came to 0.06%.

As to `CC(=O)C1(C)CC2=C(CCCC2(C)C)CC1C` (stereo not shown) [ISO E Super], the “TRPA1 Pre-incubation” value at TRPA1 receptor [3] is on record as −0.4%. Further, the “TRPA1 Direct addition” value at TRPA1 receptor [2] was 11.53%.

Regarding `C/C=C/c1ccc(OC(=O)Cc2ccccc2)c(OC)c1` [Iso-eugenyl phenylacetate], the “TRPA1 Pre-incubation” value at TRPA1 receptor [3] was 42.19%. For the same compound, the “TRPA1 Direct addition” value at TRPA1 receptor [2] is 29.74%.

Turning to `CC(C)C(=O)O` [Isobutryic Acid], on TRPA1 receptor [3], the “TRPA1 Pre-incubation” value came to 78.64%. Besides, the “TRPA1 Direct addition” value at TRPA1 receptor [2] worked out at 1.15%.

In the case of `C=C(OCC)C1C(C)(C)CC(=O)CC1(C)C` [Kephalis], the “TRPA1 Pre-incubation” value at TRPA1 receptor [3] is 83.88%. Also, the “TRPA1 Direct addition” value on TRPA1 receptor [2] was −0.23%.

With `C=C[C@](C)(O)CCC=C(C)C` [L-Linalool], at TRPA1 receptor [3], the “TRPA1 Pre-incubation” value is listed as 65.28%. Also, the “TRPA1 Direct addition” value at TRPA1 receptor [2] was −11.37%.

With `CC(C)[C@@H]1CC[C@@H](C)CC1=O` [L-Menthone], the “TRPA1 Pre-incubation” value at TRPA1 receptor [3] amounted to 70.56%. Moreover, at TRPA1 receptor [2], the “TRPA1 Direct addition” value came to 4.4%.

For the compound `O=C(O)C(O)C(O)C(=O)O` [L-Tataric Acid], the “TRPA1 Pre-incubation” value at TRPA1 receptor [3] worked out at 79%. Moreover, the “TRPA1 Direct addition” value at TRPA1 receptor [2] was −2.77%.

For the compound `CC(C)[C@@H]1CC[C@@H](C)C[C@H]1O` [L-menthol], the cooling threshold result in experiment [4] was “about 800 ppb”.

In the case of `CC(=O)O[C@@H]1C[C@H](C)CC[C@H]1C(C)C` [Laevo Menthyl Acetate], the “TRPA1 Pre-incubation” value on TRPA1 receptor [3] was 87.91%. Further, at TRPA1 receptor [2], the “TRPA1 Direct addition” value is −9.39%.

In the case of `CCCCCCCCCCCC=O` [Lauric Aldehyde], the “TRPA1 Pre-incubation” value at TRPA1 receptor [3] is 85.96%. Moreover, at TRPA1 receptor [2], the “TRPA1 Direct addition” value was determined as 19.05%.

As to `CC(C)=CCC/C(C)=C/C=O` [Lemarome], the “TRPA1 Pre-incubation” value at TRPA1 receptor [3] was 41.41%. In addition, on TRPA1 receptor [2], the “TRPA1 Direct addition” value is recorded as 80.13%.

Take `CC(C)[C@@H]1CC[C@@H](C)C[C@@H]1O` [Material 1-neomenthol, 1-neomenthol]: the cooling threshold result in experiment [4] is “about 3,000 ppb”.

In the case of `COC(=O)CCCc1ccccc1` [Methyl 4-Phenyl butyrate], the “TRPA1 Pre-incubation” value on TRPA1 receptor [3] is 98.83%. Besides, the “TRPA1 Direct addition” value on TRPA1 receptor [2] is on record as −0.22%.

Take `CC1CCC(C(C)(C)S)C(=O)C1` (stereo not shown) [P-Mentha-8-Thiol-3-one]: the “TRPA1 Pre-incubation” value at TRPA1 receptor [3] was found to be 73.82%. In addition, at TRPA1 receptor [2], the “TRPA1 Direct addition” value worked out at 46.29%.

As to `Cc1ccc(C=O)cc1` [P-Totylaldehyde], the “TRPA1 Pre-incubation” value on TRPA1 receptor [3] is recorded as 60.52%. Also, the “TRPA1 Direct addition” value at TRPA1 receptor [2] is recorded as 11.1%.

Take `CC(=O)OCCCc1ccccc1` [Phenyl Propyl Acetate]: on TRPA1 receptor [3], the “TRPA1 Pre-incubation” value was 69.3%. Besides, the “TRPA1 Direct addition” value at TRPA1 receptor [2] is −9.54%.

Take `C=C(C)CCCC(C)CCOC(C)=O` (stereo not shown) [Rhodinyl Acetate]: the “TRPA1 Pre-incubation” value at TRPA1 receptor [3] is recorded as 66.4%. For the same compound, the “TRPA1 Direct addition” value on TRPA1 receptor [2] is given as −17.14%.

With `CC1C2CC(CC2C2CCCC(O)C2)C1(C)C` (stereo not shown) [Sandela], the “TRPA1 Pre-incubation” value on TRPA1 receptor [3] was found to be 94.17%. In addition, the “TRPA1 Direct addition” value at TRPA1 receptor [2] turned out to be 25.65%.

Take `[Cl][Sn][Cl]` [Stannous Chloride]: the “TRPA1 Pre-incubation” value at TRPA1 receptor [3] stood at 54.35%. On TRPA1 receptor [2], the “TRPA1 Direct addition” value is −14.1%.

With `CCC(C)(O)CCCC(C)C` (stereo not shown) [Tetrahydrolinalool], the “TRPA1 Pre-incubation” value at TRPA1 receptor [3] is 70.8%. For the same compound, the “TRPA1 Direct addition” value at TRPA1 receptor [2] is listed as −17.09%.

In the case of `Oc1cc(Cl)ccc1Oc1ccc(Cl)cc1Cl` [Triclosan, reference compound], in experiment [1], the “Qualitative Team Evaluations (n = 4)” value is on record as “Shifted off-taste from soapy to bitter after 10 minutes”. Further, at TRPA1 receptor [2], the activation at 100 µM was 196%, the activation was -0.05% and the “% of AITC Receptor Activation” value is 277%.

Regarding `C=CCCCCCCCCC=O` [Undecylenic Aldehyde], on TRPA1 receptor [3], the “TRPA1 Pre-incubation” value is 52.14%. In addition, the “TRPA1 Direct addition” value on TRPA1 receptor [2] was −14.32%.

Turning to `C=C(C)[C@@H]1CCC2=CCC[C@@H](C)[C@]2(C)C1` [Valencene], the “TRPA1 Pre-incubation” value at TRPA1 receptor [3] is on record as 94.99%. Moreover, on TRPA1 receptor [2], the “TRPA1 Direct addition” value is 0.1%.

`COc1cc(C=O)ccc1OC(=O)C(C)C` [Vanillin Isobutyrate]: the “Qualitative Team Evaluations (n = 4)” value in experiment [1] is on record as “Great reduction in bitter taste with no aftertaste. Slight vanilla character”. On TRPA1 receptor [2], the activation at 100 µM is 118%, the activation is -0.11% and the “% of AITC Receptor Activation” value was determined as 118%.

For `[Cl-].[Cl-].[Zn+2]` [Zinc Chloride], the “TRPA1 Pre-incubation” value on TRPA1 receptor [3] is reported as 21.61%. In addition, the “TRPA1 Direct addition” value at TRPA1 receptor [2] stood at 5.46%.

In the case of `C=C(C)C1CC=C(C)C(OC(C)=O)C1` (stereo not shown) [carvyl acetate], at TRPA1 receptor [3], the “TRPA1 Pre-incubation” value worked out at 117.9%. Also, the “TRPA1 Direct addition” value on TRPA1 receptor [2] is listed as −0.25%.

As for `CC(C)[C@@H]1CC[C@@H](C)C[C@@H]1O` [d-neomenthol], in experiment [4], the cooling threshold entry is on record as “about 25,000 ppb”.

Consider `C/C=C/C(=O)C1C(C)C=CCC1(C)C` (stereo not shown) [delta-damascone], for which the “TRPA1 Pre-incubation” value on TRPA1 receptor [3] turned out to be 138.93%. Besides, the “TRPA1 Direct addition” value at TRPA1 receptor [2] is listed as 0.74%.

For the compound `C/C=C/c1ccc(OCC)c(OC)c1` [ethyl isoeugenol], the “TRPA1 Pre-incubation” value at TRPA1 receptor [3] came out at 111.43%. In addition, the “TRPA1 Direct addition” value on TRPA1 receptor [2] is reported as −0.14%.

With `CCOc1cc(C2OCC(C)O2)ccc1O` (stereo not shown) [ethyl vanillin propylene glycol acetal], on TRPA1 receptor [3], the “TRPA1 Pre-incubation” value amounted to 103.19%. In addition, at TRPA1 receptor [2], the “TRPA1 Direct addition” value was found to be 0%.

Turning to `CCCC(=O)OC(C)c1ccccc1` (stereo not shown) [methyl benzyl butyrate], the “TRPA1 Pre-incubation” value on TRPA1 receptor [3] amounted to 116.22%. Further, the “TRPA1 Direct addition” value at TRPA1 receptor [2] is listed as −0.34%.

As to `CCCC/C=C/C=C/C=O` [trans,trans,-2,4-Nonadienal], at TRPA1 receptor [3], the “TRPA1 Pre-incubation” value is reported as −4.24%. At TRPA1 receptor [2], the “TRPA1 Direct addition” value was found to be 112.15%.

In the case of Benzaldehyde Glyceryl Acetal, the “TRPA1 Pre-incubation” value on TRPA1 receptor [3] is given as 30.62%. The “TRPA1 Direct addition” value at TRPA1 receptor [2] was −2.74%.

Consider Iso Jasmone, for which, on TRPA1 receptor [3], the “TRPA1 Pre-incubation” value is reported as 58.16%. In addition, the “TRPA1 Direct addition” value at TRPA1 receptor [2] came out at 11.48%.

In the case of Jasmonyl, the “TRPA1 Pre-incubation” value at TRPA1 receptor [3] turned out to be 68.48%. For the same compound, the “TRPA1 Direct addition” value on TRPA1 receptor [2] was found to be 7.36%.

With Phellandrene, at TRPA1 receptor [3], the “TRPA1 Pre-incubation” value is given as 52.15%. For the same compound, the “TRPA1 Direct addition” value at TRPA1 receptor [2] was 1.65%.

For Rhodinol 70 Spec 59508, at TRPA1 receptor [3], the “TRPA1 Pre-incubation” value was found to be 87.57%. The “TRPA1 Direct addition” value on TRPA1 receptor [2] is −9.13%.

Consider Roselea Spec 59514, for which, on TRPA1 receptor [3], the “TRPA1 Pre-incubation” value amounted to 71.26%. Besides, the “TRPA1 Direct addition” value at TRPA1 receptor [2] is listed as 14.53%.
